# Values quoted from earlier work in patent US6335361B1, “Method of treating benign forgetfulness” (Juvenon Inc., priority 1999, dated 2002).
# Where two headings read alike, the source gives them in different places.
# What was measured:
# mitochondria [1] = tested on: mitochondria
# [2] = tested on: human plasma LDL phospholipids; conditions: healthy Finnish men and women, Q10 supplementation
# striatal nerves = conditions: mice, Q10 diet four weeks before and one week after MPTP
# mitochondria [3] = conditions: through action in the mitochondria
# mice = conditions: male mice, life-long supplementation
# [4] = tested on: oxidative phosphorylation in skeletal muscles and brains; conditions: patients with mitochondrial cytopathies due to enzyme defects
# [5] = woman deficient in Q10, 150 mg/kg
# [6] = daily supplements up to 200 mg for 6-12 months and 100 mg daily for up to 6 y
# oxidant production = conditions: carnitine supplementation
# [7] = men over 60, 5 days
# [8] = older adults 67-80 years, 8 weeks
smiles,measurement,setting,value
"CC(=O)O[C@H](CC(=O)[O-])C[N+](C)(C)C [ALC, acetyl-L-carnitine]","age-related decrease in cardiolipin, mtDNA transcription and membrane potential",mitochondria [1],reverse
same,age-related dysfunction of carnitine-acetyl-carnitine exchange across the inner mitochondrial membrane,mitochondria [1],slow or reverse
C[N+](C)(C)C[C@H](O)CC(=O)[O-] [L-carnitine],"age-related decrease in cardiolipin, mtDNA transcription and membrane potential",mitochondria [1],reverse
same,age-related dysfunction of carnitine-acetyl-carnitine exchange across the inner mitochondrial membrane,mitochondria [1],slow or reverse
"COC1=C(OC)C(=O)C(C/C=C(\C)CC/C=C(\C)CC/C=C(\C)CC/C=C(\C)CC/C=C(\C)CC/C=C(\C)CC/C=C(\C)CC/C=C(\C)CC/C=C(\C)CCC=C(C)C)=C(C)C1=O [Q10, Coenzyme Q10]",peroxyl radical-trapping capacity,[2],doubled
same,"dopamine, higher than control diet",striatal nerves,37%
same,more dense neurons than control diet,striatal nerves,62%
same,"programmed cell death, or apoptosis",mitochondria [3],appears to block
same,lifespan,mice,did not prolong or shorten
same,oxidative phosphorylation in skeletal muscles and brains,[4],marked improvement
same,"Q10 levels in kidney, heart and brain",rats; Q10 supplementation,not affected
same,lifespan,"rats; male rats, life-long supplementation",did not prolong or shorten
same,plasma and liver levels,rats; supplemented rats,2.6-8.4 times higher
same,effect on doxorubicin-induced oxidant production and mtDNA deletions,cardiac tissue; cardiac tissue,blocks the effects of doxorubicin
same,clinical response,[5],rapidly improved
same,adverse effects,[6],No important adverse effects
"O=C(O)CCCC[C@@H]1CCSS1 [R-α-alipoic acid, R-α-lipoic acid]",ambulatory activity of aged rats,aged rats; aged rats,triple
same,age-related decline in mitochondrial membrane potential,"aged rats; rat, in vivo",restore
same,age-related decrease in oxygen consumption,"aged rats; rat, in vivo",reverse
same,age-related increase in oxidants,"aged rats; rat, in vivo",significantly lower
same,glutathione and ascorbic acid levels,"aged rats; rat, in vivo",to youthful levels
C[N+](C)(C)CC(O)CC(=O)[O-] (stereo not drawn) [carnitine],cell antioxidants,oxidant production,decreased cell antioxidants markedly
same,increase of oxidant production,oxidant production,30%
CN(CC(=O)O)C(=N)N [creatine],isokinetic performance and body mass,[7],only small increases
same,isometric strength,[7],no effect
same,safety,1.5 g-25 g/day for at least a year,safe
same,adverse effects,"athletes, up to 75 grams a day for years, aside from weight gain",without known adverse effects
same,skeletal muscle strength and endurance,"older individuals (40-73), 20 g/day, one week",increased
same,time to exhaustion,phosphocreatine (PCr); both groups combined,increased
same,increase of resting PCr,"phosphocreatine (PCr); middle-aged group (50-year-olds), P<0.05",30%
same,mean initial PCr resynthesis rate,"phosphocreatine (PCr); middle-aged group, P<0.05",increased significantly
same,increase of resting PCr,"phosphocreatine (PCr); young group (30-year-olds), P<0.05",15%
same,"1- and 12-repetitions maxima, effect of creatine supplementation",[8],no beneficial effect
COc1cccc2c1C(=O)c1c(O)c3c(c(O)c1C2=O)C[C@@](O)(C(=O)CO)C[C@@H]3O[C@H]1C[C@H](N)[C@H](O)[C@H](C)O1 [doxorubicin],mitochondrial oxidant production,cardiac tissue; doxorubicin by itself,stimulates
same,mtDNA deletions in cardiac tissue,cardiac tissue; doxorubicin by itself,marked increase
COc1c(O)c(C)c(C/C=C(\C)CC/C=C(\C)CC/C=C(\C)CC/C=C(\C)CC/C=C(\C)CC/C=C(\C)CC/C=C(\C)CC/C=C(\C)CC/C=C(\C)CCC=C(C)C)c(O)c1OC [ubiquinol-10],oxidative damage to DNA of human lymphocytes,human lymphocytes,appears to protect
